Assay results published in EP2423181A1, “Multitarget substituted biphenyl diol derivatives” (PROUS INSTITUTE FOR BIOMEDICAL RESEARCH S.A., priority 2010, dated 2012).
Counter-ions that a name gives are not always drawn. Like-named read-outs stand apart in the source and are kept apart here.

Columns and labels:
tumor melanoma B16-FO = experiment: Tumor cell proliferation assay (alamarBlue); type: cell-based, murine; conditions: Mus musculus
Protocol: Changes in cell proliferation were detected based on the ability of viable cells to cause alamarBlue® to change its oxidized (non-fluorescent, blue) to a reduced (fluorescent, red) form. The alamarBlue® reaction allows the quantification of cell proliferation and examination of the metabolic activity of viable cells. Test substances were examined for activity on the proliferation of human or murine tumor cell lines at assay concentrations from 0.01 to 100 µM.

COX-1 = biological target: T1, COX-1 (Homo sapiens, UniProt P23219); experiment: COX-1 inhibition in human platelets (PGE2 enzyme immunoassay); type: biochemical; conditions: read-out: % COX-1 Inhibition
T1 construct: endogenous in cells; host or cells: human platelets
Protocol: (§1) The COX-1 inhibitory activity of representative compounds of the invention was determined according to previously reported methods. COX-1 activity was assessed in human platelets using 100 µM arachidonic acid as a substrate and preincubation and incubation times of 15 min at 37 °C in HBSS, 15 mM HEPES pH 7.4 . The quantification method used was enzyme immunoassay determination of PGE2 (Chan, C.C. et al. J Pharmacol Exp Ther, 1999, 290, 551-560; Swinney, D.C. et al. J Biol Chem, 1997, 272, 12393-12398; Warner, T.D. et al. Proc Natl Acad Sci U S A, 1999, 96, 7563-7568; Riendeau, D. et al. Can J Physiol Pharmacol, 1997, 75, 1088-1095). COX-2 inhibitory activity was determined in human recombinant insect Sf21 cells according to references (Warner, T.D. et al., Proc Natl Acad Sci, USA. 1999;96(13):7563-7568; Riendeau, D. et al., Can J Physiol Pharmacol, 1997 ;75(9):1088-1095). Briefly, the COX-2 inhibitory activity was assessed on human recombinant insect Sf21 cells using 0.3 µM arachidonic acid as a substrate and preincubation and incubation times of 15 and 5 min, respectively, at 37 °C in 100 mM Tris-HCl, pH 7.7. The quantification method used was enzyme immunoassay determination of PGE2. Table 11. Inhibition of COX-1 and COX-2 at 10 µM

tumor brain U-87 MG = experiment: Tumor cell proliferation assay (alamarBlue); type: cell-based; conditions: Homo sapiens; tumor brain U-87 MG; read-out: IC50
In short: (§2)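 Viable-cell metabolic activity was measured by alamarBlue reduction from the oxidized, non-fluorescent blue form to the reduced, fluorescent red form. Test substances were applied to human or murine tumor cell lines at 0.01 to 100 µM to assess effects on proliferation.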

tumor liver Hep 3B = experiment: Tumor cell proliferation assay (alamarBlue); type: cell-based; conditions: Homo sapiens, Hep3B
In short: as §2

tumor breast MDA-MB-231 = experiment: Tumor cell proliferation assay (alamarBlue); type: cell-based; conditions: Homo sapiens
In short: as §2

tumor breast MCF-7 = experiment: Tumor cell proliferation assay (alamarBlue); type: cell-based; conditions: Homo sapiens, MCF7
In short: as §2

tumor ovary OVCAR-3 = experiment: Tumor cell proliferation assay (alamarBlue); type: cell-based; conditions: Homo sapiens; tumor ovary OVCAR-3; read-out: IC50
In short: as §2

tumor colon HCT-116 = experiment: Tumor cell proliferation assay (alamarBlue); type: cell-based; conditions: Homo sapiens; tumor colon HCT-116; read-out: IC50
In short: as §2

tumor breast T-47D = experiment: Tumor cell proliferation assay (alamarBlue); type: cell-based; conditions: Homo sapiens, T47D
In short: as §2

[1] = log D octanol/water distribution coefficient; type: physicochemical
Source text: Lipophilicity has been correlated to various drug properties, affecting permeability, absorption, distribution, plasma protein binding, metabolism, elimination, and toxicity. In contrast to honokiol and magnolol, compounds claimed in the invention, and more particularly those wherein the nitrogen atom in the group -O-CH(phenyl)-(CH2)p-NH-R^3 is protonated and the compound further comprises a pharmaceutically acceptable counter-anion present an optimal log Doctanol/water (range 0-3), indicating good aqueous solubility, permeability, oral absorption, and blood-brain barrier penetration. Experimental studies in murine models have confirmed the results.
Absorption, distribution and metabolism studies in vitro with selected examples were performed in order to determine pharmacokinetic parameters such as permeability (or absorption constant), intrinsic clearance (or metabolic clearance), and bioavailability. Physicochemical properties such as water solubility, pKa, log P, and log Doctanol/water, and in vitro experimental studies such as permeability in Caco2 cells, and protein binding in the mouse, stability in murine microsomes, chemical stability at different pH and stability in plasma were evaluated for the pharmacokinetic prediction in mice.

COX-2 = biological target: T2, COX-2 (Homo sapiens, UniProt P35354); experiment: COX-2 inhibition (PGE2 enzyme immunoassay); type: biochemical; conditions: read-out: % COX-2 inhibition
T2 construct: host or cells: Sf21 insect cells
T2 sequence (P35354 18-604): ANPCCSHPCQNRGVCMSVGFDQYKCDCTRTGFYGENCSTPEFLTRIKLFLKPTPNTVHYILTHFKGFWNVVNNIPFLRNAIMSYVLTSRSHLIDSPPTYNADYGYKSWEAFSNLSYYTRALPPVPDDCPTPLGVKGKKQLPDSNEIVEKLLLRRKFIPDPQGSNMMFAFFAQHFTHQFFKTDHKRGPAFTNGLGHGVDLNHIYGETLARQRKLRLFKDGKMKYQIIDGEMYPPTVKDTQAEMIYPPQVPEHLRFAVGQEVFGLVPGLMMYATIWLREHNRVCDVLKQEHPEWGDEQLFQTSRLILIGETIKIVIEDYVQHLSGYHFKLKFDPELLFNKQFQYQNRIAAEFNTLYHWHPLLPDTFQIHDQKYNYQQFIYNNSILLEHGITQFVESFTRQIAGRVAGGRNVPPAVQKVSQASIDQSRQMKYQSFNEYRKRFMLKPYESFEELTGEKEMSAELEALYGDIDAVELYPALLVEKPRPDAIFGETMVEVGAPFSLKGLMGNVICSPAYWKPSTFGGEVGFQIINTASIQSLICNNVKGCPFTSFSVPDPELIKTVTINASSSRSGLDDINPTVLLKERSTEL
Protocol: as §1

[2] = tumor melanoma B16-FO, read-out: IC50

T1 sequence (P23219 24-599): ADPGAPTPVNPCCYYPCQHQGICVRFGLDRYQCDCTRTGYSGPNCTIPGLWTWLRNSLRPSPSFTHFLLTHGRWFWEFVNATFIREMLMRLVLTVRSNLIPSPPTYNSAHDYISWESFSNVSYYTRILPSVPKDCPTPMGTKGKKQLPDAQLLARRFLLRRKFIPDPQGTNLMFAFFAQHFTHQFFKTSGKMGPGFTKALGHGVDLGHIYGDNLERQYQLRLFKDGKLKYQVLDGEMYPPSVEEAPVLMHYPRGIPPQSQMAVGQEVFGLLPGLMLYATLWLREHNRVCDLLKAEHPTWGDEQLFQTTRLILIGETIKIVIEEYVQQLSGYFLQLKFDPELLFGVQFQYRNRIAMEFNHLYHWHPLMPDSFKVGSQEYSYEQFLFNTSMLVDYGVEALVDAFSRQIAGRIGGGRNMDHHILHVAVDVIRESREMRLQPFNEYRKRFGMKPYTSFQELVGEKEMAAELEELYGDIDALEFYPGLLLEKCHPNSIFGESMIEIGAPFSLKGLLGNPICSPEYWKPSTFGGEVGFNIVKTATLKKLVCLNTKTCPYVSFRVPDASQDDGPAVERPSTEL

C=CCc1ccc(O)c(-c2cc(CC=C)ccc2OC(CCNC)c2ccccc2)c1.Cl (centres unmarked) [Example 1, 5,5'-Diallyl-2'-[3-(methylamino)-1-phenylpropoxy]biphenyl-2-ol hydrochloride]
IC50 (tumor melanoma B16-FO; [2]): 1.9 µM
inhibition at 10 µM (COX-1; at 10 µM, human platelets): 81%
IC50 (tumor brain U-87 MG): 2 µM
IC50 (tumor liver Hep 3B; tumor liver Hep 3B, read-out: IC50): 5.6 µM
IC50 (tumor breast MDA-MB-231; tumor breast MDA-MB-231, read-out: IC50): 3.3 µM
IC50 (tumor breast MCF-7; tumor breast MCF-7, read-out: IC50): 1.6 µM
IC50 (tumor ovary OVCAR-3): 4.6 µM
IC50 (tumor colon HCT-116): 4.3 µM
IC50 (tumor breast T-47D; tumor breast T-47D, read-out: IC50): 13 µM
logDoctanol/water [1]: 1.31
inhibition at 10 µM (COX-2; at 10 µM): 0%

C=CCc1ccc(O)c(-c2ccc(OC(CCNC)c3ccccc3)c(CC=C)c2)c1 (centres unmarked) [Example 5, 3',5-Diallvl-4'-13-(methylamino)-1-phenylpropoxy]biphenyl-2-ol hydrochloride]
IC50 (tumor melanoma B16-FO): 1.6 µM
inhibition at 10 µM (COX-1): 75%
IC50 (tumor liver Hep 3B): 1.9 µM
IC50 (tumor breast MDA-MB-231; MDA-MB-231): 2.1 µM
IC50 (tumor breast MCF-7): 4.5 µM
IC50 (tumor breast T-47D): 1.6 µM
logDoctanol/water [1]: 0.85
inhibition at 10 µM (COX-2): 0%

C=CCc1ccc(O)c(-c2ccc(O)c(CC=C)c2)c1 [Honokiol, reference compound]
IC50 (tumor melanoma B16-FO; [2]): 30 µM
inhibition at 10 µM (COX-1; at 10 µM, human platelets): 0%
IC50 (tumor brain U-87 MG): 56 µM
IC50 (tumor ovary OVCAR-3): 38 µM
IC50 (tumor colon HCT-116): 17 µM
logDoctanol/water [1]: 5.25
inhibition at 10 µM (COX-2; at 10 µM): 79%
